Molecular target: T1, human F508del CFTR (Homo sapiens, UniProt P13569, DEL508-508)
T1 construct: expressed in transfected cells; host or cells: Fisher Rat Thyroid (FRT) cells
Assay: CFTR-YFP High Throughput Assay
Format: cell-based
Conditions: FRT cells expressing human F508del CFTR and YFP; for Emax: EMax normalized to the positive control, read-out: % Efficacy
Method in brief: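 Corrector mode: 24-26 h compound exposure (2 nM-40 μM, 37° C) of FRT cells carrying human F508del CFTR and YFP-H148Q/I152L, followed by washing and 60-120 min RT stimulation with 20 μM forskolin and 30 μM P3. CFTR activity is the least-squares-fitted rate of YFP quenching (Ex 500/Em 540 nm) after iodide addition.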

T1 sequence (P13569 with tags, fused parts or gaps DEL508-508): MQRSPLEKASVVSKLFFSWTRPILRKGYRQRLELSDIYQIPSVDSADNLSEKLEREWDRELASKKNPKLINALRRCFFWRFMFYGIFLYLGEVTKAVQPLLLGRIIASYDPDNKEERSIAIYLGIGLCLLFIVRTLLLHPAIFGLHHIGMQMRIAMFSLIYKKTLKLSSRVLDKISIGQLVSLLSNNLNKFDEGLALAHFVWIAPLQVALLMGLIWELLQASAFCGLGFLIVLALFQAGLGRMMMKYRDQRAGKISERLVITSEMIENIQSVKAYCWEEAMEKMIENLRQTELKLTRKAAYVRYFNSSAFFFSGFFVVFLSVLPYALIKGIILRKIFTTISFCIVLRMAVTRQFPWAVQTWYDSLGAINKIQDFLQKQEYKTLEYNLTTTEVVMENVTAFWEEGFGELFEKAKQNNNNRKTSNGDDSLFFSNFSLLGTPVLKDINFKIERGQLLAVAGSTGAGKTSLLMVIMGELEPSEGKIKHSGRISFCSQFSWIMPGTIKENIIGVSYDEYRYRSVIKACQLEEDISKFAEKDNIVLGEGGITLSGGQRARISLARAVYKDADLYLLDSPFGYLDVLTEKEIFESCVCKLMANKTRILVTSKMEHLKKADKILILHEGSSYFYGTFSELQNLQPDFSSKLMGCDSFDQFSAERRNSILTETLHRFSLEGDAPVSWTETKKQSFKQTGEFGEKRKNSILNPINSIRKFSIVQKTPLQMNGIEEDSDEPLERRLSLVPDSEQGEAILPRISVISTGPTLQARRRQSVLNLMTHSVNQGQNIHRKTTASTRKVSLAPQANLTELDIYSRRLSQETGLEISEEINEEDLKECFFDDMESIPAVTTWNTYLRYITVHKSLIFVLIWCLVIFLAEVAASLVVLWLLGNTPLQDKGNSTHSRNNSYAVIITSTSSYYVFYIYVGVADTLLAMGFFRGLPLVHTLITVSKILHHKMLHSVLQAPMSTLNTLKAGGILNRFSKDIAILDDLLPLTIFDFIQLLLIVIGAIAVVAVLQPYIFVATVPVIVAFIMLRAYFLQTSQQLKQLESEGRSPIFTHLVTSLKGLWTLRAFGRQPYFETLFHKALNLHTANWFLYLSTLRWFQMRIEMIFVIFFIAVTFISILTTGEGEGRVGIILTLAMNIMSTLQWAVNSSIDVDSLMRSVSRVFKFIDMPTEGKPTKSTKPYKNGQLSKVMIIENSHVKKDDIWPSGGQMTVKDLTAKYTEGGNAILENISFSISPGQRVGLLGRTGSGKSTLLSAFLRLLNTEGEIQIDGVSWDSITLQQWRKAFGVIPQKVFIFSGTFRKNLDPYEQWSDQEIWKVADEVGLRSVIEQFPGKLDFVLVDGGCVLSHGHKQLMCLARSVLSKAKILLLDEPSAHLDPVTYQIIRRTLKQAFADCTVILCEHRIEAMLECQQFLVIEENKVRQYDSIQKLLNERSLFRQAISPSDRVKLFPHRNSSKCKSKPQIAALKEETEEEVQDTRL

Emax	EC50	Compound
30 to 80%	< 10 µM	CCN(C(=O)Cn1nc(C(=O)N(C)c2ccccn2)c2ccccc2c1=O)c1ccc2c(c1)OC(F)(F)O2 [Example 127, 3-(2-((2,2-difluorobenzo[d][1,3]dioxol-5-yl)(ethyl)amino)-2-oxoethyl)-N-methyl-4-oxo-N-(pyridin-2-yl)-3,4-dihydrophthalazine-1-carboxamide]
> 80%	< 10 µM	CCN(C(=O)Cn1nc(-c2cccc(C#N)c2)c2ccc(O)cc2c1=O)c1ccc2c(c1)OC(F)(F)O2 [Example 103, 2-(4-(3-cyanophenyl)-7-hydroxy-1-oxophthalazin-2(1H)-yl)-N-(2,2-difluorobenzo[d][1,3]dioxol-5-yl)-N-ethylacetamide]
10 to 30%	> 20 µM	CCc1ccc(N(CC)C(=O)Cn2nc(Cc3cccnc3)c3ncccc3c2=O)cc1 [Example 43, N-ethyl-N-(4-ethylphenyl)-2-(5-oxo-8-(pyridin-3-ylmethyl)pyrido[2,3-d]pyridazin-6(5H)-yl)acetamide]
30 to 80%	10 to 20 µM	CCc1ccc(N(CC)C(=O)Cn2nc(C(=O)Nc3cc(Cl)ccc3C#N)c3ccccc3c2=O)cc1 [Example 128, N-(5-chloro-2-cyanophenyl)-3-(2-(ethyl(4-ethylphenyl)amino)-2-oxoethyl)-4-oxo-3,4-dihydrophthalazine-1-carboxamide]
30 to 80%	10 to 20 µM	CCc1ccc(N(CC)C(=O)Cn2nc(Cc3cccnc3)c3ccccc3c2=O)cc1 [Example 25, N-ethyl-N-(4-ethylphenyl)-2-(1-oxo-4-(pyridin-3-ylmethyl)phthalazin-2(1H)-yl)acetamide]
10 to 30%	> 20 µM	CCc1ccc(N(CC)C(=O)Cn2nc(-c3cccc4c3OCO4)c3ccccc3c2=O)cc1 [Example 10, 2-(4-(benzo[d][1,3]dioxol-4-yl)-1-oxophthalazin-2(1H)-yl)-N-ethyl-N-(4-ethylphenyl)acetamide]
10 to 30%	> 20 µM	CCc1ccc(N(CC)C(=O)Cn2nc(-c3ccc(C(=O)OC)cc3)c3ccccc3c2=O)cc1 [Example 15, methyl 4-(3-(2-(ethyl(4-ethylphenyl)amino)-2-oxoethyl)-4-oxo-3,4-dihydrophthalazin-1-yl)benzoate]
> 80%	< 10 µM	CCN(C(=O)Cn1nc(-c2cccc(C#N)c2)c2ccccc2c1=O)c1ccc2c(c1)OC(F)(F)O2 [Example 21, 2-(4-(3-cyanophenyl)-1-oxophthalazin-2(1H)-yl)-N-(2,2-difluorobenzo[d][1,3]dioxol-5-yl)-N-ethylacetamide]
30 to 80%	> 20 µM	CCN(C(=O)Cn1nc(-c2ccc(C(=O)O)cc2)c2ccccc2c1=O)c1ccc2c(c1)OC(F)(F)O2 [Example 20, 4-(3-(2-((2,2-difluorobenzo[d][1,3]dioxol-5-yl)(ethyl)amino)-2-oxoethyl)-4-oxo-3,4-dihydrophthalazin-1-yl)benzoic acid]
30 to 80%	> 20 µM	CCc1ccc(N(CC)C(=O)Cn2nc(-c3ccc(C(N)=O)cc3)c3ccccc3c2=O)cc1 [Example 12, 4-(3-(2-(ethyl(4-ethylphenyl)amino)-2-oxoethyl)-4-oxo-3,4-dihydrophthalazin-1-yl)benzamide]
30 to 80%	< 10 µM	CCN(C(=O)Cn1nc(-c2ccc(S(N)(=O)=O)cc2)c2ccc(OC)cc2c1=O)c1ccc(OC(F)F)cc1 [Example 73, N-(4-(difluoromethoxy)phenyl)-N-ethyl-2-(7-methoxy-1-oxo-4-(4-sulfamoylphenyl)phthalazin-2(1H)-yl)acetamide]
30 to 80%		CCN(C(=O)Cn1nc(Cc2cccnc2)c2cccc(OC)c2c1=O)c1ccc2c(c1)OC(F)(F)O2 [Example 55, N-(2,2-difluorobenzo[d][1,3]dioxol-5-yl)-N-ethyl-2-(8-methoxy-1-oxo-4-(pyridin-3-ylmethyl)phthalazin-2(1H)-yl)acetamide]
30 to 80%	< 10 µM	CCOc1cccc2c(=O)n(CC(=O)N(CC)c3ccc4c(c3)OC(F)(F)O4)nc(Cc3cccnc3)c12 [Example 58, N-(2,2-difluorobenzo[d][1,3]dioxol-5-yl)-N-ethyl-2-(5-ethoxy-1-oxo-4-(pyridin-3-ylmethyl)phthalazin-2(1H)-yl)acetamide]
30 to 80%		CCc1ccc(N(CC)C(=O)Cn2nc(Cc3cccnc3)c3ccc(OC)cc3c2=O)cc1 [Example 35, N-ethyl-N-(4-ethylphenyl)-2-(7-methoxy-1-oxo-4-(pyridin-3-ylmethyl)phthalazin-2(1H)-yl)acetamide]
30 to 80%		CCc1ccc(N(CC)C(=O)Cn2nc(Cc3cccnc3)c3cccc(F)c3c2=O)cc1 [Example 37, N-ethyl-N-(4-ethylphenyl)-2-(8-fluoro-1-oxo-4-(pyridin-3-ylmethyl)phthalazin-2(1H)-yl)acetamide]
> 80%	10 to 20 µM	CCN(C(=O)Cn1nc(-c2ccc(S(N)(=O)=O)cc2)c2ccccc2c1=O)c1ccc2c(c1)OC(F)(F)O2 [Example 18, N-(2,2-difluorobenzo[d][1, 3]dioxol-5-yl)-N-ethyl-2-(1-oxo-4-(4-sulfamoylphenyl)phthalazin-2(1H)-yl)acetamide]

Further lines, the molecule ahead of its results:

Compound	Emax	EC50
CCN(C(=O)c1nn(-c2nc3ccccc3s2)c(=O)c2c1c1ccccc1n2C)c1ccccc1 [Example 172, 3-(benzo[d]thiazol-2-yl)-N-ethyl-5-methyl-4-oxo-N-phenyl-4,5-dihydro-3H-pyridazino[4,5-b]indole-1-carboxamide]	10 to 30%	
Cc1nc2ccc(N(C)C(=O)Cn3nc(-c4cccc(C#N)c4)c4ccc(OC5CCCCC5)cc4c3=O)cc2o1 [Example 115, 2-(4-(3-cyanophenyl)-7-(cyclohexyloxy)-1-oxophthalazin-2(1H)-yl)-N-methyl-N-(2-methylbenzo[d]oxazol-6-yl)acetamide]	> 80%	< 10 µM
COc1ccc2c(c1)c1c(=O)n(CC(=O)N(C)c3ccc4nc(C)oc4c3)ncc1n2Cc1ccc(F)cc1 [Example 260, 2-(5-(4-fluorobenzyl)-8-methoxy-1-oxo-1,5-dihydro-2H-pyridazino[4,5-b]indol-2-yl)-N-methyl-N-(2-methylbenzo[d]oxazol-6-yl)acetamide]	> 80%	< 10 µM
CCN(C(=O)c1nn(C)c(=O)c2c1c1ccccc1n2C)c1ccc2c(c1)OC(F)(F)O2 [Example 211, N-(2,2-difluorobenzo[d][1,3]dioxol-5-yl)-N-ethyl-3,5-dimethyl-4-oxo-4,5-dihydro-3H-pyridazino[4,5-b]indole-1-carboxamide]	30 to 80%	< 10 µM
CCN(C(=O)c1nn(C2CCN(S(=O)(=O)c3ccc4c(c3)OC(F)(F)O4)CC2)c(=O)c2c1c1ccccc1n2C)c1ccccc1 [Example 200, 3-(1-((2,2-difluorobenzo[d][1, 3]dioxol-5-yl)sulfonyl)piperidin-4-yl)-N-ethyl-5-methyl-4-oxo-N-phenyl-4,5-dihydro-3H-pyridazino[4,5-b]indole-1-carboxamide]	30 to 80%	< 10 µM
CCN(C(=O)c1nn(-c2ccc(C)cc2)c(=O)c2c1c1ccccc1n2C)C1CC1 [Example 160, N-cyclopropyl-N-ethyl-5-methyl-4-oxo-3-(p-tolyl)-4,5-dihydro-3H-pyridazino[4,5-b]indole-1-carboxamide]	30 to 80%	
CCN(C(=O)c1nn(-c2ccccc2)c(=O)c2c1c1ccccc1n2C)c1cccc(F)c1 [Example 175, N-ethyl-N-(3-fluorophenyl)-5-methyl-4-oxo-3-phenyl-4,5-dihydro-3H-pyridazino[4,5-b]indole-1-carboxamide]	30 to 80%	> 20 µM
COc1ccc2c(-c3ccc(S(N)(=O)=O)cc3)nn(CC(=O)N(C)c3ccc4c(c3)OC(F)(F)O4)c(=O)c2c1 [Example 71, N-(2,2-difluorobenzo[d][1,3]dioxol-5-yl)-2-(7-methoxy-1-oxo-4-(4-sulfamoylphenyl)phthalazin-2(1H)-yl)-N-methylacetamide]	30 to 80%	
Cc1ccc(-n2nc(C(=O)N(CC(=O)O)c3ccccc3)c3c4ccccc4n(C)c3c2=O)cc1 [Example 163, 2-(5-methyl-4-oxo-N-phenyl-3-(p-tolyl)-4,5-dihydro-3H-pyridazino[4,5-b]indole-1-carboxamido)acetic acid]	30 to 80%	
CCN(C(=O)Cn1ncc2c(c1=O)c1ccccc1n2Cc1cccnc1)c1ccc2c(c1)OC(F)(F)O2 [Example 140, N-(2,2-difluorobenzo[d][1,3]dioxol-5-yl)-N-ethyl-2-(1-oxo-5-(pyridin-3-ylmethyl)-1H-pyridazino[4,5-b]indol-2(5H)-yl)acetamide]	30 to 80%	
CCN(C(=O)Cn1ncc2c(c1=O)c1ccccc1n2Cc1ccncc1)c1ccc2c(c1)OC(F)(F)O2 [Example 143, N-(2,2-difluorobenzo[d][1,3]dioxol-5-yl)-N-ethyl-2-(1-oxo-5-(pyridin-4-ylmethyl)-1H-pyridazino[4,5-b]indol-2(5H)-yl)acetamide]	30 to 80%	
COc1ccc2c(-c3cccc(F)c3)nn(CC(=O)C3(c4ccc5c(c4)OC(F)(F)O5)CC3)c(=O)c2c1 [Example 250, 2-(2-(1-(2,2-difluorobenzo[d][1,3]dioxol-5-yl)cyclopropyl)-2-oxoethyl)-4-(3-fluorophenyl)-7-methoxyphthalazin-1(2H)-one]	30 to 80%	< 10 µM
CCN(C(=O)Cn1nc(Cc2cccnc2)c2cc(OC)c(OC)cc2c1=O)c1ccc2c(c1)OC(F)(F)O2 [Example 44, N-(2,2-difluorobenzo[d][1,3]dioxol-5-yl)-2-(6,7-dimethoxy-1-oxo-4-(pyridin-3-ylmethyl)phthalazin-2(1H)-yl)-N-ethylacetamide]	30 to 80%	10 to 20 µM
CCN(C(=O)c1nn(C(C)C)c(=O)c2c1c1sc(C)cc1n2C)c1ccccc1 [Example 246, N-ethyl-6-isopropyl-2,4-dimethyl-5-oxo-N-phenyl-5,6-dihydro-4H-thieno[2′,3′:4,5]pyrrolo[2,3-d]pyridazine-8-carboxamide]	30 to 80%	> 20 µM

Reference: patent publication US10370366B2 (Flatley Discovery Lab, LLC, priority 2013, dated 2019)
